We go through two molecules from ChEMBL document CHEMBL5653615 (J Biol Chem, 2013).

For test [1], the target named is T1, Serine/threonine-protein kinase A-Raf (Homo sapiens) (UniProt P10398).
T1 sequence (whole entry): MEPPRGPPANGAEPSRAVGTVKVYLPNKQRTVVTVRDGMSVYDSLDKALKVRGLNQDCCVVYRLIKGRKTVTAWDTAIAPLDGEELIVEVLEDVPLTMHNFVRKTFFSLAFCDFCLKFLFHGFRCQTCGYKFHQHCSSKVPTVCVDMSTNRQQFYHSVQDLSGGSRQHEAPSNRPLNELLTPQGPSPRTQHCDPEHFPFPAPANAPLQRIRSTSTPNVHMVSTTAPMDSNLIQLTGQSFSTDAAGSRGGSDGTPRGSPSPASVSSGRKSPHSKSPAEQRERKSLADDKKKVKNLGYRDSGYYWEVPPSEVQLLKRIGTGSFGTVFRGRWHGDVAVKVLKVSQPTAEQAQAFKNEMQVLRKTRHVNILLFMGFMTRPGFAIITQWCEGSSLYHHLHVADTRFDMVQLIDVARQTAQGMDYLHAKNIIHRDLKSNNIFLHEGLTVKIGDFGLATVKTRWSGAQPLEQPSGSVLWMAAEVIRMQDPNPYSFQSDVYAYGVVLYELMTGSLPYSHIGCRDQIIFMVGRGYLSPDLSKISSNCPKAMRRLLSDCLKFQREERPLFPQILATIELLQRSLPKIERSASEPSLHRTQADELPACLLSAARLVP
Put plainly: Inhibition of human ARAF at 500 nM by HotSpot assay relative to control.

The target of test [2] is T2, NUAK family SNF1-like kinase 1 (Homo sapiens) (UniProt O60285).
T2 sequence (whole entry): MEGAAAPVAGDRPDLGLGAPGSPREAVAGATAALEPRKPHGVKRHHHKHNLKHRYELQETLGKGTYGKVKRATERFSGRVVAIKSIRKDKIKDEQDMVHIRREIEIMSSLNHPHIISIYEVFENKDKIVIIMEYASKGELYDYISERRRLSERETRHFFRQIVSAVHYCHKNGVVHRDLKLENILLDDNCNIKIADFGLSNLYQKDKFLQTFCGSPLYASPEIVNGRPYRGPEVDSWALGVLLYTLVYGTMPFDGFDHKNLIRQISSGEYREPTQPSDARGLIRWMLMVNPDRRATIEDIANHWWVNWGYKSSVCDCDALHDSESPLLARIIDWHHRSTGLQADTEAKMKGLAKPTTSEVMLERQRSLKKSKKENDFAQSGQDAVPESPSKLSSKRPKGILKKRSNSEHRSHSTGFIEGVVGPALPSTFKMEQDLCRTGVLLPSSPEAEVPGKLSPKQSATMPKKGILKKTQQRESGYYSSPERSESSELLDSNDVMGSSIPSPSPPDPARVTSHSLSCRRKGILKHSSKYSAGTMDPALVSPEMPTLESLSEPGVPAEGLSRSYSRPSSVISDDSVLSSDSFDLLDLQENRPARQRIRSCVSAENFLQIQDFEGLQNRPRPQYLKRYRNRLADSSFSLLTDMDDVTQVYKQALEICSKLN
Briefly: Inhibition of human ARK5 at 500 nM by HotSpot assay relative to control.

Test [3] concerns the target Tyrosine-protein kinase FRK (Homo sapiens) (UniProt P42685). Briefly: Inhibition of human FRK at 500 nM by HotSpot assay relative to control.
Test [4] concerns the target T3, G protein-coupled receptor kinase 3 (Homo sapiens) (UniProt P35626).
T3 sequence (whole entry): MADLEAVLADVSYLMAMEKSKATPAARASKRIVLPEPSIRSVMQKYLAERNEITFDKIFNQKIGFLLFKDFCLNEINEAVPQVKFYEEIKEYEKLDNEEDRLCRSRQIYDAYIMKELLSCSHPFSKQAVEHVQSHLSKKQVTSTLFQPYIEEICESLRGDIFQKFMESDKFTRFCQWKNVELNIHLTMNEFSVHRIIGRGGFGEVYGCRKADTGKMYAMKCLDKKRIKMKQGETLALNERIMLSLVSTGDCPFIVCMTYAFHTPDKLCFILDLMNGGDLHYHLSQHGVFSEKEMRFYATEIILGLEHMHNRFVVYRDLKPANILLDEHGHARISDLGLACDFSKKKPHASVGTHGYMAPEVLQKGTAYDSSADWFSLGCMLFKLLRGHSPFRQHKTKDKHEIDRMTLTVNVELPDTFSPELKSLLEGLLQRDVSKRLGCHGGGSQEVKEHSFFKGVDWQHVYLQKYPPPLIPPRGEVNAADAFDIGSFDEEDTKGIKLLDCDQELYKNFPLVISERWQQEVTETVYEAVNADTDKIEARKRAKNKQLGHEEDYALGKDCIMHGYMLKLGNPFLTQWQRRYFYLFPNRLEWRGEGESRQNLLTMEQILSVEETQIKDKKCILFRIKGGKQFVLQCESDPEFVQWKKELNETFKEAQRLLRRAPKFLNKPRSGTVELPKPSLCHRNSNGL
Briefly: Inhibition of human GRK3 at 500 nM by HotSpot assay relative to control.

Test [5] addresses T4, MAP/microtubule affinity-regulating kinase 4 (Homo sapiens) (UniProt Q96L34).
T4 sequence (whole entry): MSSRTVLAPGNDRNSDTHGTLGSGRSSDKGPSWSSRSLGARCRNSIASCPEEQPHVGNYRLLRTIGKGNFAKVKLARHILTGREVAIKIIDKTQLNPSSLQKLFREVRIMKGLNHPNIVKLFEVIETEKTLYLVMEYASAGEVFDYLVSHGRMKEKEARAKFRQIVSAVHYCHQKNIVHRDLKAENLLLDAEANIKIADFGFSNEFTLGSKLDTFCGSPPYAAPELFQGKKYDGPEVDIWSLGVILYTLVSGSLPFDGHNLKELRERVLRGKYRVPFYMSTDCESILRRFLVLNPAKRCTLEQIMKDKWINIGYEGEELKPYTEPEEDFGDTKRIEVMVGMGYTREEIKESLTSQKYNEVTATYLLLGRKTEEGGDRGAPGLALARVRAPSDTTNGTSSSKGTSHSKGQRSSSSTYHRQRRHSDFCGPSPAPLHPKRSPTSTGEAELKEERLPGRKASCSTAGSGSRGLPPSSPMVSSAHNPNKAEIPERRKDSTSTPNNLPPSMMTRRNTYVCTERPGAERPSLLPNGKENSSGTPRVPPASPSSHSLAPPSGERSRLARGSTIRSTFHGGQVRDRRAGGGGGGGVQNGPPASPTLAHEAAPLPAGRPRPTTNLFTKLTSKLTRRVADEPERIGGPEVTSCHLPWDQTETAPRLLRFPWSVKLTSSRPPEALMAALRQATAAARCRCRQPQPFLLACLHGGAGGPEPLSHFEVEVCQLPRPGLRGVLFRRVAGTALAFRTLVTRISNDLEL
Briefly: Inhibition of human MARK4 at 500 nM by HotSpot assay relative to control.

In test [6] the target is Serine/threonine-protein kinase PLK1 (Homo sapiens) (UniProt P53350). Briefly: Inhibition of human PLK1 at 500 nM by HotSpot assay relative to control.
Serine/threonine-protein kinase PLK1 (Homo sapiens), sequence (P53350 whole entry): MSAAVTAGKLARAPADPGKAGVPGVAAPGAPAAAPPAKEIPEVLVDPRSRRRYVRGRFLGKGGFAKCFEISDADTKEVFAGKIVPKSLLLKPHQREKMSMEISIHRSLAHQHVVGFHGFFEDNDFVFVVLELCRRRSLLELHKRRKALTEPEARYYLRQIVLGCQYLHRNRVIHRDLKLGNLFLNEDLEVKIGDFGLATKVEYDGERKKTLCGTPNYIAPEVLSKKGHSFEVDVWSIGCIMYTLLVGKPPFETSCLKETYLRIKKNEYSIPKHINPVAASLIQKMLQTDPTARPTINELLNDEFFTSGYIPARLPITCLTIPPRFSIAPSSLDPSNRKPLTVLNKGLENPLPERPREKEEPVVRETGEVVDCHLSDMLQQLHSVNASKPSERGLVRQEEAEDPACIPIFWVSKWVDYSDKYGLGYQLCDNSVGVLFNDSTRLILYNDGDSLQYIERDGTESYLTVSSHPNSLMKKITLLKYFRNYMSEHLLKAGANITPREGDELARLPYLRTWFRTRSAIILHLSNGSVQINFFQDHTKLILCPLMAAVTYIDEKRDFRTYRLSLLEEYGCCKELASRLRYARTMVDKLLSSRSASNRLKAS

Tyrosine-protein kinase FRK (Homo sapiens), sequence (P42685 whole entry): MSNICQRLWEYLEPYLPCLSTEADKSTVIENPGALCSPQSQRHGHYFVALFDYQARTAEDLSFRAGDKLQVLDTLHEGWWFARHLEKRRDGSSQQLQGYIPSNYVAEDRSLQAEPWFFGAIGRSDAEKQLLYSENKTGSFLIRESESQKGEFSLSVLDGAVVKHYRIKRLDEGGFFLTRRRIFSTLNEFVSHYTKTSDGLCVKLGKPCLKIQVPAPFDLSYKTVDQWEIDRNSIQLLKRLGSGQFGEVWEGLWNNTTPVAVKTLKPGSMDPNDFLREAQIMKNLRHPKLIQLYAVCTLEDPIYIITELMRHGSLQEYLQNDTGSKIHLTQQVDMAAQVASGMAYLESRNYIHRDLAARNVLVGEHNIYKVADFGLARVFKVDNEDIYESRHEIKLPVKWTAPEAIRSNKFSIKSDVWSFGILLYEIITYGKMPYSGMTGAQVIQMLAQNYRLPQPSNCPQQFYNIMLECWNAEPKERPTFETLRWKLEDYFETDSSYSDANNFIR

Usually inhibition stands for the change of the read-out against control, counted positive when it falls. For the molecule `Oc1n[nH]c2nnc(-c3c(-c4ccccc4)nn4ccccc34)cc12`, the inhibition in test [1] is 2.19%; in test [2], 1.9%; in test [3], -4.01%; in test [4], -1.47%; in test [5], -3.17%; in test [6] it was 2.92%.

Consider `Nc1n[nH]c2nnc(-c3c(-c4ccccc4)nn4ccccc34)cc12`, for which the inhibition in test [1] is 1.59%; in test [2] it was 7.47%; in test [3], -1.32%; in test [4], -0.84%; in test [5], -4.7%; in test [6], 1.9%.
